Experimental data: PubChem BioAssay AID180 (DTP/NCI, 2004)
Values joined by “and” are separate entries in the source; they are usually repeats but may differ in a detail not shown here. Equal entries are not always repeated.

System: BDF1 mice, Adenocarcinoma 755 s.c., tumor weight T/C
Assay: NCI In Vivo Anticancer Drug Screen. Data for tumor model Adenocarcinoma 755 (subcutaneous) in B6D2F1 (BDF1) mice
Conditions: endpoint: mean tumor weight, higher = larger tumour
Method in brief: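 In vivo antitumor screen on a transplantable tumor line. Result equals the measure in compound-treated animals divided by the same measure in vehicle controls.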

[1] = dose: 15.0 mg/kg/injection, schedule: Q01DX011 (ip), vehicle: methylcellulose (MC)
[2] = dose: 31.0 mg/kg/injection, schedule: Q01DX011 (ip), vehicle: methylcellulose (MC)
[3] = dose: 125.0 mg/kg/injection, schedule: Q01DX011 (ip), vehicle: methylcellulose (MC)
[4] = dose: 250.0 mg/kg/injection, schedule: Q01DX011 (ip), vehicle: methylcellulose (MC)
[5] = dose: 25.0 mg/kg/injection, schedule: Q01DX011 (ip), vehicle: methylcellulose (MC)
[6] = dose: 25.0 mg/kg/injection, schedule: Q01DX011 (ip), vehicle: carboxymethylcellulose (CMC)
[7] = dose: 50.0 mg/kg/injection, schedule: Q01DX011 (ip), vehicle: carboxymethylcellulose (CMC)
[8] = dose: 75.0 mg/kg/injection, schedule: Q01DX011 (ip), vehicle: methylcellulose (MC)
[9] = dose: 225.0 mg/kg/injection, schedule: Q01DX011 (ip), vehicle: methylcellulose (MC)
[10] = dose: 50.0 mg/kg/injection, schedule: Q01DX011 (ip), vehicle: saline
[11] = dose: 100.0 mg/kg/injection, schedule: Q01DX011 (ip), vehicle: saline
[12] = dose: 200.0 mg/kg/injection, schedule: Q01DX011 (ip), vehicle: saline
[13] = dose: 3.5 mg/kg/injection, schedule: Q01DX011 (ip), vehicle: carboxymethylcellulose (CMC)
[14] = dose: 10.0 mg/kg/injection, schedule: Q01DX011 (ip), vehicle: carboxymethylcellulose (CMC)

## Cc1cnc(SCc2ccccc2)[nH]c1=O
[1]
  T/C: 103 % of control
[2]
  T/C: 104 % of control
[3]
  T/C: 92 % of control
[4]
  T/C: 77 % of control

## CC(C)n1cc2c(N)ncnc2n1
dose: 12.5 mg/kg/injection, schedule: Q01DX011 (ip), vehicle: methylcellulose (MC)
  T/C: 55 % of control
dose: 12.5 mg/kg/injection, schedule: Q01DX011 (ip), vehicle: saline
  T/C: 74 % of control
[5]
  T/C: 18 % of control
dose: 25.0 mg/kg/injection, schedule: Q01DX011 (ip), vehicle: saline
  T/C: 14 % of control

## Nc1nc(Cl)cc(-c2ccccc2)n1
[1]
  T/C: 86 % of control
[2]
  T/C: 122 % of control
dose: 62.0 mg/kg/injection, schedule: Q01DX011 (ip), vehicle: methylcellulose (MC)
  T/C: 94 % of control
[3]
  T/C: 65 % of control
[4]
  T/C: 107 % of control

## O=CN(O)CC(=O)O
dose: 62.5 mg/kg/injection, schedule: Q01DX011 (ip), vehicle: carboxymethylcellulose (CMC)
  T/C: 98 % of control
dose: 125.0 mg/kg/injection, schedule: Q01DX011 (ip), vehicle: carboxymethylcellulose (CMC)
  T/C: 86 % of control
dose: 250.0 mg/kg/injection, schedule: Q01DX011 (ip), vehicle: carboxymethylcellulose (CMC)
  T/C: 85 % of control

## COC(=O)C1(N)CCCC1
dose: 12.5 mg/kg/injection, schedule: Q01DX011 (ip), vehicle: carboxymethylcellulose (CMC)
  T/C: 63 % of control
[6]
  T/C: 35 % of control
[7]
  T/C: 11 % of control
dose: 100.0 mg/kg/injection, schedule: Q01DX011 (ip), vehicle: carboxymethylcellulose (CMC)
  T/C: 5 % of control

## Brc1ncnc2c1ncn2C1CCCS1 (centres undefined)
[5]
  T/C: 75 % of control
[8]
  T/C: 66 % of control
[9]
  T/C: 86 % of control

## Nc1ncnc2c1ncn2C1CCCC(CO)O1 (centres undefined)
[10]
  T/C: 196 % of control
[11]
  T/C: 115 % of control
[12]
  T/C: 93 % of control

## CN1CCN(CCCN2c3ccccc3Sc3ccc(C(F)(F)F)cc32)CC1
dose: 22.0 mg/kg/injection, schedule: Q01DX011 (ip), vehicle: saline
  T/C: 32 % of control

## CSc1nc(N)cc(=O)n1C
[10]
  T/C: 100 % of control
[11]
  T/C: 63 % of control
[12]
  T/C: 98 % of control

## C=CCOP(=O)(N1CC1CC)N1CC1CC (centres undefined)
dose: 17.0 mg/kg/injection, schedule: Q01DX011 (ip), vehicle: saline
  T/C: 69 % of control
dose: 33.0 mg/kg/injection, schedule: Q01DX011 (ip), vehicle: saline
  T/C: 50 % of control
dose: 66.0 mg/kg/injection, schedule: Q01DX011 (ip), vehicle: saline
  T/C: 18 % of control

## Nc1nc(N)c(N=O)c(Nc2ccc(Br)cc2)n1
dose: 5.0 mg/kg/injection, schedule: Q01DX011 (ip), vehicle: methylcellulose (MC)
  T/C: 71 % of control
dose: 10.0 mg/kg/injection, schedule: Q01DX011 (ip), vehicle: methylcellulose (MC)
  T/C: 32 % of control
dose: 20.0 mg/kg/injection, schedule: Q01DX011 (ip), vehicle: methylcellulose (MC)
  T/C: 20 % of control and 31 % of control
dose: 22.0 mg/kg/injection, schedule: Q01DX011 (ip), vehicle: methylcellulose (MC)
  T/C: 44 % of control
dose: 40.0 mg/kg/injection, schedule: Q01DX011 (ip), vehicle: methylcellulose (MC)
  T/C: 16 % of control
dose: 44.0 mg/kg/injection, schedule: Q01DX011 (ip), vehicle: methylcellulose (MC)
  T/C: 21 % of control
dose: 88.0 mg/kg/injection, schedule: Q01DX011 (ip), vehicle: methylcellulose (MC)
  T/C: 20 % of control and 30 % of control

## Nc1nc(=S)c2ncn(C3OC(COC(=O)c4ccc(Cl)cc4)C(OC(=O)c4ccc(Cl)cc4)C3OC(=O)c3ccc(Cl)cc3)c2[nH]1 (centres undefined)
dose: 0.88 mg/kg/injection, schedule: Q01DX011 (ip), vehicle: carboxymethylcellulose (CMC)
  T/C: 94 % of control
dose: 1.75 mg/kg/injection, schedule: Q01DX011 (ip), vehicle: carboxymethylcellulose (CMC)
  T/C: 65 % of control
[13]
  T/C: 102 % of control
dose: 6.0 mg/kg/injection, schedule: Q01DX011 (ip), vehicle: carboxymethylcellulose (CMC)
  T/C: 72 % of control
[14]
  T/C: 6 % of control
dose: 12.0 mg/kg/injection, schedule: Q01DX011 (ip), vehicle: carboxymethylcellulose (CMC)
  T/C: 23 % of control
dose: 16.0 mg/kg/injection, schedule: Q01DX011 (ip), vehicle: carboxymethylcellulose (CMC)
  T/C: 1 % of control
[7]
  T/C: 2 % of control and 3 % of control

## Cc1ccc2c(c1)CCCN2C(=O)CCCl
[5]
  T/C: 101 % of control
[8]
  T/C: 40 % of control
[9]
  T/C: 60 % of control

## CN(CCO)/N=N/c1nc[nH]c1C(N)=O
dose: 42.0 mg/kg/injection, schedule: Q01DX011 (ip), vehicle: carboxymethylcellulose (CMC)
  T/C: 60 % of control
dose: 93.0 mg/kg/injection, schedule: Q01DX011 (ip), vehicle: carboxymethylcellulose (CMC)
  T/C: 57 % of control
dose: 187.0 mg/kg/injection, schedule: Q01DX011 (ip), vehicle: carboxymethylcellulose (CMC)
  T/C: 26 % of control

## C[C@]12CC[C@H](O)C[C@H]1CC[C@@H]1[C@@H]2CC[C@]2(C)[C@@H](C3=CC(=O)OC3)CC[C@]12O
dose: 5.0 mg/kg/injection, schedule: Q01DX011 (ip), vehicle: carboxymethylcellulose (CMC)
  T/C: 72 % of control
[14]
  T/C: 67 % of control
[6]
  T/C: 49 % of control

## c1nc(SCCSc2ncnc3nc[nH]c23)c2[nH]cnc2n1
dose: 4.6 mg/kg/injection, schedule: Q01DX011 (ip), vehicle: methylcellulose (MC)
  T/C: 93 % of control
dose: 9.3 mg/kg/injection, schedule: Q01DX011 (ip), vehicle: methylcellulose (MC)
  T/C: 86 % of control
dose: 18.7 mg/kg/injection, schedule: Q01DX011 (ip), vehicle: methylcellulose (MC)
  T/C: 74 % of control
[8]
  T/C: 1 % of control
dose: 150.0 mg/kg/injection, schedule: Q01DX011 (ip), vehicle: methylcellulose (MC)
  T/C: 2 % of control

## O=C(CCCl)N1CCc2ccccc2C1
dose: 25.0 mg/kg/injection, schedule: Q01DX011 (sc), vehicle: olive oil, sesame oil, peanut oil
  T/C: 71 % of control
dose: 75.0 mg/kg/injection, schedule: Q01DX011 (sc), vehicle: olive oil, sesame oil, peanut oil
  T/C: 99 % of control

## CCCCOC(OCCCC)C(OCCCC)OCCCC
dose: 50.0 mg/kg/injection, schedule: Q01DX011 (ip), vehicle: other
  T/C: 105 % of control
dose: 100.0 mg/kg/injection, schedule: Q01DX011 (ip), vehicle: other
  T/C: 106 % of control
dose: 200.0 mg/kg/injection, schedule: Q01DX011 (ip), vehicle: other
  T/C: 63 % of control

## Cc1cnc2nc(N)nc(N)c2n1
[7]
  T/C: 67 % of control
dose: 75.0 mg/kg/injection, schedule: Q01DX011 (ip), vehicle: carboxymethylcellulose (CMC)
  T/C: 33 % of control

## [Cl][Pt+2]([Cl])([Cl])[Cl].[Na+].[S-]c1ncnc2nc[nH]c12.[S-]c1ncnc2nc[nH]c12
dose: 1.0 mg/kg/injection, schedule: Q01DX011 (ip), vehicle: carboxymethylcellulose (CMC)
  T/C: 90 % of control
dose: 1.7 mg/kg/injection, schedule: Q01DX011 (ip), vehicle: carboxymethylcellulose (CMC)
  T/C: 101 % of control
dose: 2.0 mg/kg/injection, schedule: Q01DX011 (ip), vehicle: carboxymethylcellulose (CMC)
  T/C: 43 % of control
[13]
  T/C: 31 % of control
dose: 4.0 mg/kg/injection, schedule: Q01DX011 (ip), vehicle: saline
  T/C: 5 % of control
dose: 7.0 mg/kg/injection, schedule: Q01DX011 (ip), vehicle: carboxymethylcellulose (CMC)
  T/C: 3 % of control and 6 % of control
dose: 8.0 mg/kg/injection, schedule: Q01DX011 (ip), vehicle: saline
  T/C: 4 % of control
[14]
  T/C: 21 % of control
dose: 14.0 mg/kg/injection, schedule: Q01DX011 (ip), vehicle: carboxymethylcellulose (CMC)
  T/C: 1 % of control and 2 % of control
dose: 20.0 mg/kg/injection, schedule: Q01DX011 (ip), vehicle: carboxymethylcellulose (CMC)
  T/C: 1 % of control
dose: 28.0 mg/kg/injection, schedule: Q01DX011 (ip), vehicle: carboxymethylcellulose (CMC)
  T/C: 5 % of control
dose: 32.0 mg/kg/injection, schedule: Q01DX011 (ip), vehicle: saline
  T/C: 1 % of control
dose: 43.8 mg/kg/injection, schedule: Q01DX011 (oral), vehicle: saline
  T/C: 96 % of control
dose: 87.5 mg/kg/injection, schedule: Q01DX011 (oral), vehicle: saline
  T/C: 12 % of control
dose: 175.0 mg/kg/injection, schedule: Q01DX011 (oral), vehicle: saline
  T/C: 7 % of control
